In ChEMBL document CHEMBL1201862, “PubChem BioAssay data set” (2004):
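Results reflect a 48-hour exposure of cells in 96-well plates to compound at five concentrations. GI50 is the concentration that inhibits growth by half.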 Activity calls are given as the source filed them. Rule as the data show it: active = GI50 up to about 1.1 µM and inactive = higher.

How the values were obtained:
Assay in all cases: growth of human tumour cells (NCI), 48 h
OVCAR-4 = tested on: OVCAR-4
XF498 = tested on: XF498
SR = tested on: SR
SF-268 = tested on: SF-268
M14 = tested on: M14
HT-29 = tested on: HT-29
CAKI-1 = tested on: CAKI-1
SK-OV-3 = tested on: SK-OV-3
SNB-78 = tested on: SNB-78
SK-MEL-2 = tested on: SK-MEL-2
SN12C = tested on: SN12C
SNB-75 = tested on: SNB-75
NCI-H460 = tested on: NCI-H460
HCT-116 = tested on: HCT-116
EKVX = tested on: EKVX
HOP-62 = tested on: HOP-62
UO-31 = tested on: UO-31
SNB-19 = tested on: SNB-19
SK-MEL-28 = tested on: SK-MEL-28
TK-10 = tested on: TK-10
DMS-273 = tested on: DMS-273
Malme-3M = tested on: Malme-3M
NCI-H23 = tested on: NCI-H23
A498 = tested on: A498
K562 = tested on: K562
NCI-H226 = tested on: NCI-H226
KM-20L2 = tested on: KM-20L2
DLD-1 = tested on: DLD-1
UACC-257 = tested on: UACC-257
IGROV-1 = tested on: IGROV-1
HCC 2998 = tested on: HCC 2998
OVCAR-8 = tested on: OVCAR-8
SW-620 = tested on: SW-620
LXFL 529 = tested on: LXFL 529
HL-60 = tested on: HL-60
DMS-114 = tested on: DMS-114
OVCAR-5 = tested on: OVCAR-5
UACC-62 = tested on: UACC-62
RXF 631 = tested on: RXF 631
NCI-H522 = tested on: NCI-H522
ACHN = tested on: ACHN
A549 = tested on: A549
MOLT-4 = tested on: MOLT-4
RPMI-8226 = tested on: RPMI-8226
CCRF-CEM = tested on: CCRF-CEM
SK-MEL-5 = tested on: SK-MEL-5
KM12 = tested on: KM12
U-251 = tested on: U-251
HOP-92 = tested on: HOP-92
SF-295 = tested on: SF-295
HOP-18 = tested on: HOP-18
HCT-15 = tested on: HCT-15
SF-539 = tested on: SF-539
786-0 = tested on: 786-0
RXF 393 = tested on: RXF 393
OVCAR-3 = tested on: OVCAR-3
LOX IMVI = tested on: LOX IMVI
COLO 205 = tested on: COLO 205

Cc1ns/c(=N\C(=S)N(C)C)n1C
GI50 (OVCAR-4): > 100 µM (inactive)
GI50 (XF498): > 100 µM (inactive)
GI50 (SR): > 100 µM (inactive)
GI50 (SF-268): > 100 µM (inactive)
GI50 (M14): > 100 µM (inactive)
GI50 (HT-29): > 100 µM (inactive)
GI50 (CAKI-1): > 100 µM (inactive)
GI50 (SK-OV-3): > 100 µM (inactive)
GI50 (SNB-78): > 100 µM (inactive)
GI50 (SK-MEL-2): > 100 µM (inactive)
GI50 (SN12C): > 100 µM (inactive)
GI50 (SNB-75): > 100 µM (inactive)
GI50 (NCI-H460): > 100 µM (inactive)
GI50 (HCT-116): > 100 µM (inactive)
GI50 (EKVX): > 100 µM (inactive)
GI50 (HOP-62): > 100 µM (inactive)
GI50 (UO-31): > 100 µM (inactive)
GI50 (SNB-19): > 100 µM (inactive)
GI50 (SK-MEL-28): > 100 µM (inactive)
GI50 (TK-10): > 100 µM (inactive)
GI50 (DMS-273): > 100 µM (inactive)
GI50 (Malme-3M): > 100 µM (inactive)
GI50 (NCI-H23): > 100 µM (inactive)
GI50 (A498): > 100 µM (inactive)
GI50 (K562): > 100 µM (inactive)
GI50 (NCI-H226): > 100 µM (inactive)
GI50 (KM-20L2): > 100 µM (inactive)
GI50 (DLD-1): > 100 µM (inactive)
GI50 (UACC-257): > 100 µM (inactive)
GI50 (IGROV-1): > 100 µM (inactive)
GI50 (HCC 2998): > 100 µM (inactive)
GI50 (OVCAR-8): > 100 µM (inactive)
GI50 (SW-620): > 100 µM (inactive)
GI50 (LXFL 529): > 100 µM (inactive)
GI50 (HL-60): > 100 µM (inactive)
GI50 (DMS-114): > 100 µM (inactive)
GI50 (OVCAR-5): > 100 µM (inactive)
GI50 (UACC-62): > 100 µM (inactive)
GI50 (RXF 631): > 100 µM (inactive)
GI50 (NCI-H522): > 100 µM (inactive)
GI50 (ACHN): > 100 µM (inactive)
GI50 (A549): > 100 µM (inactive)
GI50 (MOLT-4): > 100 µM (inactive)
GI50 (RPMI-8226): > 100 µM (inactive)
GI50 (CCRF-CEM): > 100 µM (inactive)
GI50 (SK-MEL-5): > 100 µM (inactive)
GI50 (KM12): > 100 µM (inactive)
GI50 (U-251): > 100 µM (inactive)
GI50 (HOP-92): > 100 µM (inactive)
GI50 (SF-295): > 100 µM (inactive)
GI50 (HOP-18): > 100 µM (inactive)
GI50 (HCT-15): > 100 µM
GI50 (SF-539): > 100 µM (inactive)
GI50 (786-0): > 100 µM (inactive)
GI50 (RXF 393): > 100 µM (inactive)

CCCOC(=O)C1C(c2ccc(OC)cc2)NC(c2ccc(OC)cc2)C(C(=O)OCCC)S1(=O)=O (stereo not drawn)
GI50 (OVCAR-4): > 10 µM (inactive)
GI50 (XF498): 9.18 µM (inactive)
GI50 (SR): > 100 µM (inactive)
GI50 (SF-268): > 10 µM (inactive)
GI50 (M14): > 10 µM (inactive)
GI50 (HT-29): > 10 µM (inactive)
GI50 (OVCAR-3): > 10 µM (inactive)
GI50 (CAKI-1): > 10 µM (inactive)
GI50 (SK-OV-3): > 100 µM (inactive)
GI50 (SNB-78): > 10 µM (inactive)
GI50 (SK-MEL-2): > 10 µM (inactive)
GI50 (SN12C): > 10 µM (inactive)
GI50 (SNB-75): > 10 µM (inactive)
GI50 (NCI-H460): > 10 µM (inactive)
GI50 (HCT-116): > 10 µM (inactive)
GI50 (EKVX): > 10 µM (inactive)
GI50 (HOP-62): > 10 µM (inactive)
GI50 (UO-31): > 10 µM (inactive)
GI50 (SNB-19): > 10 µM (inactive)
GI50 (SK-MEL-28): > 10 µM (inactive)
GI50 (TK-10): > 10 µM (inactive)
GI50 (DMS-273): > 10 µM (inactive)
GI50 (LOX IMVI): > 10 µM (inactive)
GI50 (Malme-3M): > 10 µM (inactive)
GI50 (NCI-H23): > 10 µM (inactive)
GI50 (A498): 85.3 µM (inactive)
GI50 (K562): > 10 µM (inactive)
GI50 (NCI-H226): > 10 µM (inactive)
GI50 (KM-20L2): > 10 µM (inactive)
GI50 (COLO 205): > 10 µM (inactive)
GI50 (DLD-1): > 10 µM (inactive)
GI50 (UACC-257): > 10 µM (inactive)
GI50 (IGROV-1): > 10 µM (inactive)
GI50 (HCC 2998): > 10 µM (inactive)
GI50 (OVCAR-8): > 10 µM (inactive)
GI50 (SW-620): > 10 µM (inactive)
GI50 (LXFL 529): > 10 µM (inactive)
GI50 (HL-60): > 100 µM (inactive)
GI50 (DMS-114): > 10 µM (inactive)
GI50 (OVCAR-5): > 10 µM (inactive)
GI50 (UACC-62): > 10 µM (inactive)
GI50 (RXF 631): > 10 µM (inactive)
GI50 (NCI-H522): > 10 µM (inactive)
GI50 (ACHN): > 10 µM (inactive)
GI50 (A549): > 10 µM (inactive)
GI50 (MOLT-4): > 10 µM (inactive)
GI50 (RPMI-8226): > 10 µM (inactive)
GI50 (CCRF-CEM): > 10 µM (inactive)
GI50 (SK-MEL-5): > 10 µM (inactive)
GI50 (KM12): > 10 µM (inactive)
GI50 (U-251): > 10 µM (inactive)
GI50 (HOP-92): > 10 µM (inactive)
GI50 (SF-295): > 10 µM (inactive)
GI50 (HOP-18): > 10 µM (inactive)
GI50 (HCT-15): > 10 µM
GI50 (SF-539): > 10 µM (inactive)
GI50 (786-0): > 10 µM (inactive)
GI50 (RXF 393): > 10 µM (inactive)
